# Values of other authors as cited in patent publication US20020179884A1, “Disinfecting and deodorizing agent” (priority 2000, published 2002).
# Details: 25° C.
row,Compound,pKa25
1,O=C([O-])O.[Na+] [sodium hydrogencarbonate],10.33
2,O=BOB(O)OB(O)OB=O [sodium tetraborate],9.24
3,O=P(O)(O)OP(=O)(O)OP(=O)(O)O [sodium tripolyphosphate],9.70
4,O=P([O-])([O-])OP(=O)([O-])O.[Na+].[Na+].[Na+] [trisodium pyrophosphate],8.95
